Laboratory results as given in article PMC3510655 (Chemical science (Royal Society of Chemistry : 2010), 2013).

Target: T1, quinone reductase 2 (QR2) (Homo sapiens, UniProt P16083)
T1 sequence (P16083 1-231): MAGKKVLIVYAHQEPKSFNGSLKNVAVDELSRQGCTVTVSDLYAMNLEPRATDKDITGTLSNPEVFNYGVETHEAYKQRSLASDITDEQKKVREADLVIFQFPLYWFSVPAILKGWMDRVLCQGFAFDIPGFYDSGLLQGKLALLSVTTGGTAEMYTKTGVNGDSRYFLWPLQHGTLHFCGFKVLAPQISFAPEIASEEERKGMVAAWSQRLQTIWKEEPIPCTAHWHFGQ
Experiment: QR2 inhibition assay using human recombinant protein
Assay type: biochemical
Conditions: authors' assay system

Row | Substance | IC50 against QR2
1 | Ammosamide H [compound 10] | irreproducible results
2 | Ammosamide E [compound 1] | nearly equipotent to 4
